Laboratory results published in US20230295068A1, “NOVEL CYCLOALKENONE COMPOUND OR SALT THEREOF” (TAIHO PHARMACEUTICAL CO., LTD., priority 2020, published 2023).

Test system: ND3 neuronal cell line
Experiment: Measurement of nerve growth stimulation effect (neurite bearing assay, neurite length assay, number of cells)
Assay type: cell-based
Conditions: relative cell number, DMSO well = 1; for viability at 1 µM / viability at 3 µM / viability at 5 µM / viability at 10 µM / viability at 30 µM / viability at 100 µM: 6 hours; for Number of cells: ND3 cells, 6 h
Experimental: To evaluate the nerve growth stimulation effect, neurite bearing assay (proportion of neurite-bearing cells) and neurite length assay (neurite length) were analyzed with reference to the method of Topalli et al. (Brain Research 1030 (2004), pp. 116-124).
An ND3 neuronal cell line (European Collection of Authenticated Cell Cultures) was seeded in a DMEM medium containing 10% fetal bovine serum (0.6×10^4 cells/1 mL) in a 24-well plate. 24 hours later, the medium of seeded cells was removed, and a solution in which the compound of the present disclosure that was sequentially diluted in dimethyl sulfoxide (DMSO) was adjusted in DIEM containing 0.1% bovine serum albumin so that the DMSO final concentration was 0.1%, was added to cells (evaluation performed in duplicate). After six hours from the addition, the proportion of neurite-bearing cells (the number of cells having a neurite longer than the diameter of the cell body/number of total cells), and the neurite length per cell were analyzed. The number of total cells, proportion of neurite-bearing cells, and neurite length per cell were analyzed using a MetaMorph Neurite Outgrowth Application Module (Molecular Devices Japan K.K.). The number of cells was defined as the relative cell number, taking the number of cells per well containing DMSO as 1. The relative activity of each compound when the maximum activity of 3-(15-methoxypentadecyl)-2,4,4-trimethylcyclohexa-2-en-1-one (compound 24) in each test was defined as 1 is shown (Table 9). For the compounds for which multiple tests were conducted, the average value was shown. Data with a number of cells of 0.5 or more was also used. Accordingly, if the number of cells was less than 0.5, the neurite length per cell and the proportion of neurite-bearing cells were defined as “-”.

With CCCCOCCCCCCCCCCCCCC1=C(C)C(=O)CCC1(C)C [Compound 20, 3-(13-butoxytridecyl)-2,4,4-trimethylcyclohex-2-en-1-one] the viability at 1 µM was 110%, the viability at 3 µM was 110% and the viability at 5 µM was 96%. It also gave a viability at 10 µM of 90%, a viability at 30 µM of 113% and a viability at 100 µM of 117%.

Work on COCCCCCCCCCCCCCCCC1=CC(=O)CCC12CC2 [Compound 43, 4-(15-methoxypentadecyl)spiro[2,5]oct-4-en-6-one] yielded a viability at 1 µM of 97%, a viability at 3 µM of 97% and a viability at 5 µM of 85%. It also gave a viability at 10 µM of 86%, a viability at 30 µM of 96% and a viability at 100 µM of 101%.

CCOCCCCCCCCCCCCCCCC1=C(C)C(=O)CCC1(C)C [Compound 25, 3-(15-ethoxypentadecyl)-2,4,4-trimethylcyclohex-2-en-1-one] was tested, and the viability at 1 µM was 97%, the viability at 3 µM was 103% and the viability at 5 µM was 97%. For the same compound, the viability at 10 µM was 97%, the viability at 30 µM was 98% and the viability at 100 µM was 94%.

CC1=C(CCCCCCCCCCCCCCCO)CCCC1=O [Compound 7, 3-(15-hydroxypentadecyl)-2-methylcyclohex-2-en-1-one, reference compound] was tested, and the viability at 1 µM was 100%, the viability at 3 µM was 100% and the viability at 5 µM was 87%. The viability at 10 µM was 86%, the viability at 30 µM was 17% and the viability at 100 µM was 19%.

Work on CC1=C(CCCCCCCCCCCCCCC(=O)N(C)C)C(C)(C)CCC1=O [Compound 54, N,N-dimethyl-15-(2,6,6-trimethyl-3-oxocyclohex-1-en-1-yl)pentadecanamide] yielded a viability at 1 µM of 93%, a viability at 3 µM of 112% and a viability at 5 µM of 87%. The viability at 10 µM was 90%, the viability at 30 µM was 4% and the viability at 100 µM was 5%.

COCCCCCCCCCCCCCCCC1=C(C)C(=O)C=CC1(C)C [Compound 41, 3-(15-methoxypentadecyl)-2,4,4-trimethylcyclohex-2,5-dien-1-one] showed a viability at 1 µM of 110%, a viability at 3 µM of 112% and a viability at 5 µM of 82%. It also gave a viability at 10 µM of 93%, a viability at 30 µM of 109% and a viability at 100 µM of 114%.

In the case of COCCCCCCCCCCCCCC1=C(C)C(=O)CCC1(C)C [Compound 16, 3-(13-methoxytridecyl)-2,4,4-trimethylcyclohex-2-en-1-one], the viability at 1 µM is reported as 89%, the viability at 3 µM is reported as 88% and the viability at 5 µM is reported as 71%. The viability at 10 µM was 68%, the viability at 30 µM was 69% and the viability at 100 µM was 77%.

COCCCCCCCCCCCCCCCC1=C(C)C(=O)CC1 [Compound 45, 3-(15-methoxypentadecyl)-2-methylcyclopent-2-en-1-one] showed a viability at 1 µM of 94%, a viability at 3 µM of 90% and a viability at 5 µM of 74%. It also gave a viability at 10 µM of 83%, a viability at 30 µM of 71% and a viability at 100 µM of 75%.

Work on CC1=C(CCCCCCCCCCCCCCC#N)C(C)(C)CCC1=O [Compound 34, 15-(2,6,6-trimethyl-3-oxocyclohex-1-en-1-yl)pentadecanitrile] yielded a viability at 1 µM of 106%, a viability at 3 µM of 101% and a viability at 5 µM of 96%. For the same compound, the viability at 10 µM was 98%, the viability at 30 µM was 98% and the viability at 100 µM was 97%.

For CC1=C(CCCCCCCCCCCCCCCOC(N)=O)C(C)(C)CCC1=O [Compound 35, 15-(2,6,6-trimethyl-3-oxocyclohex-1-en-1-yl)pentadecylcarbamate], the viability at 1 µM was 94%, the viability at 3 µM was 94% and the viability at 5 µM was 99%. For the same compound, the viability at 10 µM was 82%, the viability at 30 µM was 16% and the viability at 100 µM was 31%.

CCC1=C(CCCCCCCCCCCCCCCOC)C(C)(C)CCC1=O [Compound 60, 2-ethyl-3-(15-methoxypentadecyl)-4,4-dimethylcyclohex-2-en-1-one] gave a viability at 1 µM of 90%, a viability at 3 µM of 91% and a viability at 5 µM of 80%. For the same compound, the viability at 10 µM was 78%, the viability at 30 µM was 34% and the viability at 100 µM was 79%.

In the case of COCCCCCCCCCCCCCCCC1=CC(=O)CCC1(C)C [Compound 39, 3-(15-methoxypentadecyl)-4,4-dimethylcyclohex-2-en-1-one], the viability at 1 µM is reported as 83%, the viability at 3 µM is reported as 100% and the viability at 10 µM is reported as 97%. The viability at 30 µM was 97% and the viability at 100 µM was 49%.

With CCOCCCCCCCCCCCCCCC1=C(C)C(=O)CCC1(C)C [Compound 22, 3-(14-ethoxytetradecyl)-2,4,4-trimethylcyclohex-2-en-1-one] the viability at 1 µM was 114%, the viability at 3 µM was 103% and the viability at 5 µM was 94%. For the same compound, the viability at 10 µM was 103%, the viability at 30 µM was 99% and the viability at 100 µM was 97%.

Compound CC1=C(CCCCCCCCCCCCCCO)C(C)(C)CCC1=O [Compound 3, 3-(14-hydroxytetradecyl)-2,4,4-trimethylcyclohex-2-en-1-one, reference compound] has a viability at 1 µM of 98%, a viability at 3 µM of 105% and a viability at 5 µM of 110%. The viability at 10 µM was 108%, the viability at 30 µM was 11% and the viability at 100 µM was 13%.

CC1=C(CCCCCCCCCCCCCCCOc2ccccc2)C(C)(C)CCC1=O [Compound 51, 3-(15-phenoxypentadecyl)-2,4,4-trimethylcyclohex-2-en-1-one] was tested, and the viability at 1 µM was 107%, the viability at 3 µM was 103% and the viability at 5 µM was 93%. It also gave a viability at 10 µM of 93%, a viability at 30 µM of 96% and a viability at 100 µM of 94%.

Compound CC1(C)CCC(=O)C=C1CCCCCCCCCCCCCCCO [Compound 8, 3-(15-hydroxypentadecyl)-4,4-dimethylcyclohex-2-en-1-one, reference compound] has a viability at 1 µM of 101%, a viability at 3 µM of 102% and a viability at 5 µM of 98%. For the same compound, the viability at 10 µM was 93%, the viability at 30 µM was 6% and the viability at 100 µM was 9%.

CC1=C(CCCCCCCCCCCCCCCOC(=O)N(C)C)C(C)(C)CCC1=O [Compound 36, 15-(2,6,6-trimethyl-3-oxocyclohex-1-en-1-yl)pentadecyl dimethylcarbamate] was tested, and the viability at 1 µM was 91%, the viability at 3 µM was 107% and the viability at 5 µM was 97%. For the same compound, the viability at 10 µM was 94%, the viability at 30 µM was 98% and the viability at 100 µM was 86%.

COCCCCCCCCCCCCCCCC1=C(C)CCCC1(C)C [Compound 64, 2-(15-methoxypentadecyl)-1,3,3-trimethylcyclohex-1-ene] showed a Number of cells (1 μM compound) of 0.80, a Number of cells (3 μM compound) of 0.93 and a Number of cells (5 μM compound) of 0.96. It also gave a Number of cells (10 μM compound) of 0.88, a Number of cells (30 μM compound) of 0.96 and a Number of cells (100 μM compound) of 0.53.

CC1=C(CCCCCCCCCCCCCCOC(C)C)C(C)(C)CCC1=O [Compound 23, 3-(14-isopropoxytetradecyl)-2,4,4-trimethylcyclohex-2-en-1-one] gave a viability at 1 µM of 103%, a viability at 3 µM of 112% and a viability at 5 µM of 98%. The viability at 10 µM was 95%, the viability at 30 µM was 98% and the viability at 100 µM was 102%.

Work on COC(C)(C)CCCCCCCCCCCCCCC1=C(C)C(=O)CCC1(C)C [Compound 48, 3-(15-methoxy-15-methylhexadecyl)-2,4,4-trimethylcyclohex-2-en-1-one] yielded a viability at 1 µM of 85%, a viability at 3 µM of 93% and a viability at 5 µM of 91%. It also gave a viability at 10 µM of 90%, a viability at 30 µM of 93% and a viability at 100 µM of 87%.
